Test results taken from US20200345846A1, “CORROLE COMPOSITIONS” (TECHNION RESEARCH & DEVELOPMENT FOUNDATION LIMITED, priority 2017, published 2020).

Tested on: DU-145 prostate cancer cell line
Assay: FACS analysis with annexin V-FITC kit (apoptosis)
Type: cell-based, human
Conditions: analysis after 4 h
Description: Cells (DU-145) were seeded in 6-well microtiter plates (5×10^4 cells/mL; 3 mL per well) 24 h before the addition of assigned compounds/albumin particles. At the time of drug treatment, stock solutions of compounds were diluted to 10-fold the desired final test concentrations with EMEM medium. Aliquots of 300 μL of these diluted solutions were added to the appropriate microtiter wells containing 2700 μL of medium, resulting in the required final drug concentrations (according to assigned concentration). The final concentration of DMSO (given that the compound required DMSO for solvation) in test culture was <1%. […] Following 24-72 h of exposure at 37° C., cells were re-suspended with trypsin into PBS pH 7.2 and pelleted at 3000 rpm for 5 min. Samples were washed under PBS×3 times. Samples were taken for measurement using a BD LSR-II Analyzer supported with BD FACSDiVa™ Software Version 6.1 for data analysis. Corrole fluorescence was measured using appropriate filters for excitation (405 nm, DAPI) and emission (Ds-RED). FIGS. 15A-F present FACS analysis of DU-145 prostate cancer cell line treated with an annexin V-FITC kit after 4 h incubation with: HSA control; FIGS. 15B-F present 5-Ga HSA NP's 2, 5, 10, 15, 20 μM respectively. […] Analysis of β-lapachone was done after 4 h since it induces apoptosis faster.

CC1(C)CCC2=C(O1)c1ccccc1C(=O)C2=O [Corrole 0-lapachone, β-lapachone]
shift of annexin V-FITC distribution curve: strong shift of the distribution curve towards stronger mean fluorescence
